Drawing on US20090215857A1 (Pfizer Products Inc., priority 2005, published 2009), this text covers Ki for 34 molecules.

Structures can show the parent of a compound that is named as a salt.

Test [1] addresses T1, human norepinephrine transporter (Homo sapiens, UniProt P23975).
T1 construct: expressed in transfected cells; host or cells: HEK-293
Put plainly: hNET receptor binding ([125I]-RTI-55 radioligand). The settings on record: membranes of HEK-293 cells transfected with human norepinephrine transporter cDNA; 50 pM [125I]-RTI-55; IC50 converted by Cheng-Prusoff; read-out: NET Ki. The method, then:
Cell pastes of HEK-293 cells transfected with a human norepinephrine transporter cDNA were prepared. The cell pastes were resuspended in 400 to 700 ml of Krebs-HEPES assay buffer (25 mM HEPES, 122 mM NaCl, 3 mM KCl, 1.2 mM MgSO4, 1.3 mM CaCl2, and 11 mM glucose, pH 7.4) with a Polytron homogenizer at setting 7 for 30 seconds. Aliquots of membranes (5 mg/ml protein) were stored in liquid nitrogen until used.
The binding assay was set up in Beckman deep-well polypropylene plates with a total volume of 250 μl containing: test compound (10^−5M to 10^−12M), cell membranes, and 50 pM [^125I]-RTI-55 (Perkin Elmer, NEX-272; specific activity 2200 Ci/mmol). The reaction was incubated by gentle agitation for 90 minutes at room temperature and was terminated by filtration through Whatman GF/C filter plates using a Brandel 96-well plate harvester. Scintillation fluid (100 μl) was added to each well, and bound [^125I]-RTI-55 was determined using a Wallac Trilux Beta Plate Counter. Test compounds were run in duplicate, and specific binding was defined as the difference between binding in the presence and absence of 10 μM desipramine.
Excel and GraphPad Prism software were used for data calculation and analysis. IC50 values were converted to K, values using the Cheng-Prusoff equation.

Test [2] deals with T2, human serotonin transporter (Homo sapiens, UniProt P31645).
T2 construct: expressed in transfected cells; host or cells: HEK-293
T2 sequence (P31645 whole entry): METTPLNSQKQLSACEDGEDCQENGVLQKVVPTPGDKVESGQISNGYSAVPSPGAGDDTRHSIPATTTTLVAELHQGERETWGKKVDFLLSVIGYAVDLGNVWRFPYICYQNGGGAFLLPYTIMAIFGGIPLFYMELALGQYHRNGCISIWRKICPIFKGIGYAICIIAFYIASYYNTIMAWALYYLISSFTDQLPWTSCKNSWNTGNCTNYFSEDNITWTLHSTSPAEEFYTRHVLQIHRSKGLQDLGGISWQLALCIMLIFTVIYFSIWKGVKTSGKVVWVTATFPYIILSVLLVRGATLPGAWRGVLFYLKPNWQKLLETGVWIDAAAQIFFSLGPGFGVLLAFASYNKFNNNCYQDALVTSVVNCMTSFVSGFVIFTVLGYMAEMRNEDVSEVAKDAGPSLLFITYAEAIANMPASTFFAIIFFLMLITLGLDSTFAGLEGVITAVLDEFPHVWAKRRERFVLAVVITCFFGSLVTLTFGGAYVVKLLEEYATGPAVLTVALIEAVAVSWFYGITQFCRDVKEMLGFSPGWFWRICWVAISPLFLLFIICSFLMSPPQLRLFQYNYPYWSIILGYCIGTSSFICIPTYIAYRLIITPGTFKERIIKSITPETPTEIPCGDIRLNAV
The test is described as follows: hSERT receptor binding ([125I]-RTI-55 radioligand). The settings on record: membranes of HEK-293 cells transfected with human serotonin transporter cDNA; 50 pM [125I]-RTI-55; IC50 converted by Cheng-Prusoff; read-out: SERT Ki. The procedure:
Cell pastes of HEK-293 cells transfected with a human serotonin transporter cDNA were prepared. The cell pastes were resuspended in 400 to 700 ml of Krebs-HEPES assay buffer (25 mM HEPES, 122 mM NaCl, 3 mM KCl, 1.2 mM MgSO4, 1.3 mM CaCl2, and 11 mM glucose, pH 7.4) with a Polytron homogenizer at Setting 7 for 30 seconds. Aliquots of membranes (˜2.5 mg/ml protein) were stored in liquid nitrogen until used.
Assays were set up in FlashPlates pre-coated with 0.1% PEI in a total volume of 250 μl containing: test compound (10^−5M to 10^−12M), cell membranes, and 50 pM [^125I]-RTI-55 (Perkin Elmer, NEX-272; specific activity 2200 Ci/mmol). The reaction was incubated and gently agitated for 90 minutes at room temperature, and terminated by removal of assay volume. Plates were covered, and bound [^125I]-RTI-55 was determined using a Wallac Trilux Beta Plate Counter. Test compounds were run in duplicate, and specific binding was defined as the difference between binding in the presence and absence of 10 μM citalopram.
Excel and GraphPad Prism software were used for data calculation and analysis. IC50 values were converted to Ki values using the Cheng-Prusoff equation.

T1 sequence (P23975 whole entry): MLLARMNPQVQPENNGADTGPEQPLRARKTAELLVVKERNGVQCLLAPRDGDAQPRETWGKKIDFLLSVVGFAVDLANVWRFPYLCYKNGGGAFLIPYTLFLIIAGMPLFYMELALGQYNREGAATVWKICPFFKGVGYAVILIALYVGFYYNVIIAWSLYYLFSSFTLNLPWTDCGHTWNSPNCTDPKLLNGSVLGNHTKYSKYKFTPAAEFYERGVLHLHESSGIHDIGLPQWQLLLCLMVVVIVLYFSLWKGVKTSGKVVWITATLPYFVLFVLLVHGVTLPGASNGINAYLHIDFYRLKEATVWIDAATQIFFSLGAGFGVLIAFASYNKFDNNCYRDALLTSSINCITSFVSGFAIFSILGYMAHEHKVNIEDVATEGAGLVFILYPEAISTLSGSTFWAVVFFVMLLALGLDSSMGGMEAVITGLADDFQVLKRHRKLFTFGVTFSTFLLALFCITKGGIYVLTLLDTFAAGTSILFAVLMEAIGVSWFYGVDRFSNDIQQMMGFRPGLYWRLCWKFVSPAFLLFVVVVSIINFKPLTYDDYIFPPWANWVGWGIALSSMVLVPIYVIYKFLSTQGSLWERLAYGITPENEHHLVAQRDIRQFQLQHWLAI

`Fc1ccc(-c2ncccc2CO[C@H]2CCNC2)cc1F` [Example B-3, (S)-2-(3,4-Difluoro-phenyl)-3-(pyrrolidin-3-yloxymethyl)-pyridine fumarate]: the figures for the inhibitory constant (Ki) in test [1] and in test [2] were 310 nM and 1200 nM, respectively.
For `Fc1ccc(F)c(-c2cccnc2CO[C@H]2CCNC2)c1` [Example C-1, (S)-3-(2,5-Difluoro-phenyl)-2-(pyrrolidin-3-yloxymethyl)-pyridine fumarate], the results for the Ki in test [1] and in test [2] were 382 nM and 108 nM, respectively.
`Fc1cccc(-c2cccnc2CO[C@H]2CCNC2)c1F` [Example C-2, (S)-3-(2,3-Difluoro-phenyl)-2-(pyrrolidin-3-yloxymethyl)-pyridine fumarate]: the results for the Ki in test [1] and in test [2] were 845 nM and 74.6 nM, respectively.
As to `CCOc1cccc(-c2ccccc2CO[C@H]2CCNC2)c1` [Example D-1, (S)-3-(3′-Ethoxy-biphenyl-2-ylmethoxy)-pyrrolidine], the Ki was 4.84 nM in test [1] and 39.2 nM in test [2].
Taken in the same sequence, the figures for `COc1ccc(-c2ccccc2CO[C@H]2CCNC2)cc1C` [Example D-2, (S)-3-(4′-Methoxy-3′-methyl-biphenyl-2-ylmethoxy)-pyrrolidine] were 8.42 nM and 261 nM.
For `Fc1ccccc1-c1ccccc1CO[C@H]1CCNC1` [Example D-3, (S)-3-(2′-Fluoro-biphenyl-2-ylmethoxy)-pyrrolidine], the results for the Ki in test [1] and in test [2] were 14.7 nM and 304 nM, respectively.
For the molecule `Clc1ccc(-c2ccccc2CO[C@H]2CCNC2)cc1Cl` [Example D-4, (S)-3-(3′,4′-Dichloro-biphenyl-2-ylmethoxy)-pyrrolidine], the Ki is 15.1 nM in test [1] and 18.3 nM in test [2].
Taken in the same sequence, the figures for `CC(C)N(C(=O)c1ccccc1-c1ccccc1CO[C@H]1CCNC1)C(C)C` [Example D-5, (S)-2′-(Pyrrolidin-3-yloxymethyl)-biphenyl-2-carboxylic acid diisopropylamide] were 17.9 nM and 197 nM.
Taken in the same sequence, the figures for `Fc1cccc(-c2ccccc2CO[C@H]2CCNC2)c1` [Example D-6, (S)-3-(3′-Fluoro-biphenyl-2-ylmethoxy)-pyrrolidine] were 18.5 nM and 18.4 nM.
For `Cc1ccc(-c2ccccc2CO[C@H]2CCNC2)cc1C` [Example D-7, (S)-3-(3′,4′-Dimethyl-biphenyl-2-ylmethoxy)-pyrrolidine], the inhibition constant Ki in test [1] was determined as 21.3 nM; in test [2], 110 nM.
Taken in the same sequence, the figures for `Fc1ccc(F)c(-c2ccccc2CO[C@H]2CCNC2)c1` [Example D-8, (S)-3-(2′,5′-Difluoro-biphenyl-2-ylmethoxy)-pyrrolidine] were 21.9 nM and 208 nM.
Taken in the same sequence, the figures for `Fc1ccccc1-c1ccccc1CO[C@H]1CCNC1` [Example D-10, (S)-3-(2′-Fluoro-biphenyl-2-ylmethoxy)-pyrrolidine] were 26.5 nM and 317 nM.
As to `Cc1cc(-c2ccccc2CO[C@H]2CCNC2)ccc1F` [Example D-11, (S)-3-(4′-Fluoro-3′-methyl-biphenyl-2-ylmethoxy)-pyrrolidine], the Ki in test [1] worked out at 39.6 nM; in test [2] it was 26.7 nM.
`Clc1ccc(-c2ccccc2CO[C@H]2CCNC2)cc1` [Example D-12, (S)-3-(4′-Chloro-biphenyl-2-ylmethoxy)-pyrrolidine]: the figures for the Ki in test [1] and in test [2] were 41.6 nM and 101 nM, respectively.
Turning to `Clc1cccc(-c2ccccc2CO[C@H]2CCNC2)c1` [Example D-13, (S)-3-(3′-Chloro-biphenyl-2-ylmethoxy)-pyrrolidine], the Ki in test [1] was 43.8 nM; in test [2] it was 21.6 nM.
For `Fc1ccc(-c2ccccc2CO[C@H]2CCNC2)cc1Cl` [Example D-14, (S)-3-(3′-Chloro-4′-fluoro-biphenyl-2-ylmethoxy)-pyrrolidine] the same measures were 47.3 nM and 15.1 nM.
For `c1ccc(-c2cccc3ccccc23)c(CO[C@H]2CCNC2)c1` [Example D-15, (S)-3-(2-Naphthalen-1-yl-benzyloxy)-pyrrolidine] the same measures were 55.4 nM and 272 nM.
Taken in the same sequence, the figures for `Cc1cccc(-c2ccccc2CO[C@H]2CCNC2)c1` [Example D-16, (S)-3-(3′-Methyl-biphenyl-2-ylmethoxy)-pyrrolidine] were 63.5 nM and 24.7 nM.
As to `FC(F)(F)Oc1cccc(-c2ccccc2CO[C@H]2CCNC2)c1` [Example D-17, (S)-3-(3′-Trifluoromethoxy-biphenyl-2-ylmethoxy)-pyrrolidine], the Ki in test [1] came to 87 nM; in test [2], 30.6 nM.
Take `Fc1ccc(Cl)c(-c2ccccc2CO[C@H]2CCNC2)c1` [Example D-18, (S)-3-(2′-Chloro-5′-fluoro-biphenyl-2-ylmethoxy)-pyrrolidine]: the Ki came out at 102 nM in test [1] and 218 nM in test [2].
For `Clc1ccccc1-c1ccccc1CO[C@H]1CCNC1` [Example D-19, (S)-3-(2′-Chloro-biphenyl-2-ylmethoxy)-pyrrolidine] the same measures were 108 nM and 346 nM.
Taken in the same sequence, the figures for `CSc1cccc(-c2ccccc2CO[C@H]2CCNC2)c1` [Example D-20, (S)-3-(3′-Methylsulfanyl-biphenyl-2-ylmethoxy)-pyrrolidine] were 108 nM and 24.8 nM.
Taken in the same sequence, the figures for `COc1ccc(-c2ccccc2CO[C@H]2CCNC2)cc1F` [Example D-21, (S)-3-(3′-Fluoro-4′-methoxy-biphenyl-2-ylmethoxy)-pyrrolidine] were 113 nM and 431 nM.
In the case of `COc1cccc(-c2ccccc2CO[C@H]2CCNC2)c1` [Example D-22, (S)-3-(3′-Methoxy-biphenyl-2-ylmethoxy)-pyrrolidine], the figures for the Ki in test [1] and in test [2] were 139 nM and 27.3 nM, respectively.
As for `COc1ccccc1-c1ccccc1CO[C@H]1CCNC1` [Example D-24, (S)-3-(2′-Methoxy-biphenyl-2-ylmethoxy)-pyrrolidine], the Ki in test [1] is 230 nM; in test [2], 1260 nM.
On to `COc1c(C)cc(-c2ccccc2CO[C@H]2CCNC2)cc1C` [Example D-25, (S)-(4′-Methoxy-3′,5′-dimethyl-biphenyl-2-ylmethoxy)-pyrroldine], for which the Ki in test [1] was 269 nM; in test [2], 124 nM.
For `Cc1ccccc1-c1ccccc1CO[C@H]1CCNC1` [Example D-26, (S)-3-(2′-Methyl-biphenyl-2-ylmethoxy)-pyrrolidine] the same measures were 277 nM and 457 nM.
As for `Cc1cc(C)cc(-c2ccccc2CO[C@H]2CCNC2)c1` [Example D-27, (S)-3-(3′,5′-Dimethyl-biphenyl-2-ylmethoxy)-pyrrolidine], the Ki was 295 nM in test [1] and 91.9 nM in test [2].
Regarding `COc1ccc(-c2ccccc2CO[C@H]2CCNC2)cc1` [Example D-28, (S)-3-(4′-Methoxy-biphenyl-2-ylmethoxy)-pyrrolidine], the inhibitory constant (Ki) was 301 nM in test [1] and 1100 nM in test [2].
Consider `c1ccc(-c2ccc3ccccc3c2)c(CO[C@H]2CCNC2)c1` [Example D-29, (S)-3-(2-Naphthalen-2-yl-benzyloxy)-pyrroldine], for which the Ki in test [1] was determined as 314 nM; in test [2] it was 172 nM.
For `N#Cc1cccc(-c2ccccc2CO[C@H]2CCNC2)c1` [Example D-30] the same measures were 371 nM and 285 nM.
Take `COc1ccccc1-c1ccccc1CO[C@H]1CCNC1` [Example D-31, (S)-3-(2′-Methoxy-biphenyl-2-ylmethoxy)-pyrrolidine]: the inhibition constant (Ki) in test [1] stood at 464 nM; in test [2], 3100 nM.
Turning to `c1ccc(-c2ccc3c(c2)CCO3)c(CO[C@H]2CCNC2)c1` [Example D-32, (S)-3-[2-(2,3-Dihydro-benzofuran-5-yl)-benzyloxy]-pyrrolidine], the Ki in test [1] was determined as 516 nM; in test [2] it was 549 nM.
As for `Cc1cccc(-c2ccccc2CO[C@H]2CCNC2)c1C` [Example D-33, (S)-3-(2′,3′-Dimethyl-biphenyl-2-ylmethoxy)-pyrrolidine], the Ki in test [1] worked out at 526 nM; in test [2], 28.9 nM.

In general, Ki refers to the equilibrium dissociation constant of an inhibitor or competing ligand from its target.
